This is an account of results in patent US11045452B2, “Composition for preventing or treating cancer comprising a vascular disrupting agent and immune checkpoint inhibitor” (CHONG KUN DANG PHARMACEUTICAL CORP., priority 2017, dated 2021).

Test [1] has as its system MC38, a mouse colorectal cancer cell line. The experiment in a line: MC38 cancer animal model, Formula 1 with anti-PD-1 / anti-CTLA-4 antibody (Example 2). Format: in vivo, C57BL/6 mouse. The method, then:
MC38 (8×10^4 cell), a mouse colorectal cancer cell line, was subcutaneously transplanted to a C57BL/6 mouse. When a size of cancer reaches 40-60 mm^3, a vehicle or 5 mg/kg of the compound of the Formula 1 was intraperitoneally injected into the mouse twice a week. Also, 1 ug/uL (200 ug/200 uL/mouse) of an anti-PD-1 antibody, an anti-CTLA-4 antibody or both thereof (purchased from BioXCell) was intraperitoneally injected into the mouse twice a week, in one day after administering a vehicle or the compound of the Formula 1. A size of cancer and a weight were measured twice a week.

Test [2] has the same test system. The experiment in a line: MC38 cancer animal model, Formula 1 with anti-PD-L1 antibody (Example 3). Format: in vivo, C57BL/6 mouse. Conditions: FIG. 7. The method, then:
MC38 (8×10^4 cell), a mouse colorectal cancer cell line, was subcutaneously transplanted to a C57BL/6 mouse. When a size of cancer reaches 40-60 mm^3, a vehicle or 5 mg/kg of the compound of the Formula 1 was intraperitoneally injected into the mouse twice a week. Also, 1 ug/uL (200 ug/200 uL/mouse) of an anti-PD-L1 antibody was intraperitoneally injected into the mouse twice a week, in one day after administering a vehicle or the compound of the Formula 1. A size of cancer and a weight were measured twice a week.

The subject of test [3] is mouse bone marrow-derived dendritic cells (BM-DC). The test can be described thus: Measurement of phagocytosis of dendritic cells (FITC OVA-microsphere, flow cytometer). It is filed as cell-based. Conditions: 100 nM, 18 hours, then FITC OVA-microsphere 2 hours, FIG. 5. The method, then: (§1) Mouse bone marrow-derived dendritic cells (BM-DC) were obtained from a femur of BALB/c or C57BL/6 mouse. The cells were kept with Dulbecco's modified Eagle medium (DMEM) containing 40 ng/mL of rmGM-CSF (JW Creagene, Sungnam, Korea) and 20 ng/mL of rmIL-4 (JW CreaGene), and containing 10% heat-inactivated FBS (Hyclone), 100 U/ml of penicillin, 100 μg/ml of streptomycin (Hyclone) and 50 μM of 2-mercaptoethanol (Sigma-Aldrich, Inc., St. Louis, Mo., USA).
(§2) A compound of a Formula 2 (Compound 2), which was an active metabolite of the compound of the Formula 1, was dissolved in DMSO, and diluted with a medium of the mouse bone marrow-derived dendritic cells so as to prepare active compound.
To identify phagocytosis of dendritic cells, the mouse bone marrow-derived dendritic cells (2×10^6/well) were treated with 100 nM of the compound of the Formula 2 for 18 hours, and then added with OVA-microsphere containing ovalbumin tagged with fluorescein isothiocyanate (FITC), so as to be cultured for 2 hours. Completely cultured cells were washed with PBS, and then the cells were collected, fixed with paraformaldehyde, and analyzed with a flow cytometer.
(§3) A statistical significance between a control group and a treated group was verified by using student t-test.

Test [4] shares this test system. The test can be described thus: Identification of phenotype of dendritic cells (flow cytometry of cell surface markers). It is filed as cell-based. Conditions: 24 hours. The method, then: as §1, §2
To identify a phenotype of dendritic cells, the mouse bone marrow-derived dendritic cells were treated with the compound of the Formula 2 for 24 hours, and then were dyed with an antibody (antibody to anti-mouse CD80, anti-mouse CD86 or anti-mouse MHC II) to a cell surface marker of the mouse bone marrow-derived dendritic cells as well as an isotype control antibody. Flow cytometry was performed by using FACS Canto II flow cytometer (Becton Dickinson).
as §3
(In general: Flow cytometry measures light scatter and fluorescence of single cells or particles in a stream.)

For test [5] the test system is unchanged. The test can be described thus: Measurement of cytokines produced by dendritic cells (immunoassay kit). Conditions: 24 hours, cell culture medium, all groups administered, FIG. 4. Format: cell-based. The method, then: as §1, §2
To identify a change in secretion of cytokines, the mouse bone marrow-derived dendritic cells were treated with the compound of the Formula 2 for 24 hours, and then the cytokines were measured by using a cell culture medium. An immunoassay kit (R&D system) was used for measuring cytokines, and thus IL-1β, IL-6 and IL-12 were measured.
as §3

In the case of `COc1cc(C(=O)c2ccc(-c3csc(NC(=O)[C@@H](N)C(C)C)n3)cc2-n2cncn2)cc(OC)c1OC` [Formula 1, (S)—N-(4-(3-(1H-1,2,4-triazole-1-yl)-4-(3,4,5-trimethoxybenzoyl)phenyl)thiazole-2-yl)-2-amino-3-methylbutanamide], the “therapeutic potential in combination with the anti-CTLA-4 antibody” value in test [1] (Formula 1 5 mg/kg i.p. + anti-CTLA-4 antibody 200 ug/mouse i.p., twice a week, FIG. 6) is “very high therapeutic potential with a synergy effect”. Also, in test [1] (Formula 1 5 mg/kg i.p. + anti-PD-1 antibody 200 ug/mouse i.p., twice a week, FIG. 6), the “therapeutic potential in combination with the anti-PD-1 antibody” value is listed as “very high therapeutic potential with a synergy effect”. For the same compound, in test [1] (Formula 1 5 mg/kg i.p. + anti-PD-1 antibody and anti-CTLA-4 antibody, twice a week), the “experimental animals in which cancer was completely eradicated” value is “two of ten”. The “anti-cancer effect in combination with the anti-PD-1 antibody and the anti-CTLA-4 antibody” value in test [1] (Formula 1 5 mg/kg i.p. + both antibodies i.p., twice a week, FIG. 6) was “most increased”. Further, the growth of cancer entry is “remarkably inhibited” in test [1] (single administration, Formula 1 5 mg/kg i.p. twice a week, antibody 200 ug/mouse i.p. twice a week, FIG. 6) and “remarkably inhibited” in test [2] (single administration, Formula 1 5 mg/kg i.p. twice a week, antibody 200 ug/mouse i.p. twice a week). Also, in test [2] (Formula 1 5 mg/kg i.p. + anti-PD-L1 antibody 200 ug/mouse i.p., twice a week), the “therapeutic potential in combination with the anti-PD-L1 antibody” value is reported as “very high therapeutic potential with a synergy effect”.
Regarding `COc1cc(C(=O)c2ccc(-c3csc(N)n3)cc2-n2cncn2)cc(OC)c1OC` [Formula 2, (4-(2-aminothiazole-4-yl)-2-(1H-1,2,4-triazole-1-yl)phenyl)(3,4,5-trimethoxyphenyl)methanone], in test [3], the “phagocytosis of dendritic cells (fluorescence intensity)” value is recorded as “increased”. Moreover, the “MHC II (phenotype of mature dendritic cells) expression” value in test [4] (100 nM, FIG. 3) is “increased”. Further, the “CD80 (mature dendritic cell marker) expression” value in test [4] (0.01, 0.1 and 1 μM, FIG. 1) is given as “increased”. In test [4] (0.01, 0.1 and 1 μM, FIG. 2), the “CD86 (mature dendritic cell marker) expression” value is “increased”. In addition, in test [5], the IL-1β secretion entry is recorded as “increased”, the IL-6 secretion entry is recorded as “increased” and the IL-12 secretion entry is “increased”.
